The source of these data is patent publication US8415469B2, “Compounds and methods for kinase modulation, and indications therefor” (Plexxikon Inc., priority 2005, dated 2013).

What all share (assay type): biochemical
For assay [1], the target named is T1, MAP2K1 (Homo sapiens, UniProt Q02750).
T1 construct: purchased Invitrogen (assay run by Invitrogen)
Nature of the assay: Z'-Lyte FRET kinase assay (Invitrogen), MAP2K1. Particulars: read-out: IC50, activity toward kinase MAP2K1.

In assay [2] the target is T2, Itk (Homo sapiens, UniProt Q08881).
T2 sequence (Q08881 1-620): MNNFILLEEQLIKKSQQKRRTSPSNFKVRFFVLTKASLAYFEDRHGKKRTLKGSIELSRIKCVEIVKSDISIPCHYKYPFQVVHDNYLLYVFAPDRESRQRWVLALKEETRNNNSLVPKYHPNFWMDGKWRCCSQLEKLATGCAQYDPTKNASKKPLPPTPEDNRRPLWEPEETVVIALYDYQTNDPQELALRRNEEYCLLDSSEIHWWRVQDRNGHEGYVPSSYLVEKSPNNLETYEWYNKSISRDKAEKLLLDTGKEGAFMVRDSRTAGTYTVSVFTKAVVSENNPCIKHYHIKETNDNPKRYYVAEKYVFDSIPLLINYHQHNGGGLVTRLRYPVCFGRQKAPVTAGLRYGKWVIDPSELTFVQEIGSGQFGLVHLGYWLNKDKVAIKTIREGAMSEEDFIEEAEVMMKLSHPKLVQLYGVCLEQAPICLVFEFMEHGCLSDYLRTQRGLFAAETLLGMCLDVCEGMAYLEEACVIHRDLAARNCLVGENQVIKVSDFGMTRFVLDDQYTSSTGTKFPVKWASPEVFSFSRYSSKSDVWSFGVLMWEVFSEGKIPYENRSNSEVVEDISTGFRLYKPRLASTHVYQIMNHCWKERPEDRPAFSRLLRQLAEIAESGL
Briefly: AlphaScreen kinase assay, Itk. Particulars: read-out: IC50, activity toward kinase Itk. Put shortly:
(§1)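 Eight concentrations per compound (1:3 serial dilution of 20 mM DMSO stock) were tested. Read-out: AlphaScreen signal from phospho-antibody acceptor and streptavidin donor beads bound to biotinylated peptide substrate, reduced on kinase inhibition.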
For orientation: Alpha assays give light when donor and acceptor beads are brought close together.

Assay [3] addresses Syk (Homo sapiens, UniProt P43405). Nature of the assay: AlphaScreen kinase assay, Syk. Particulars: read-out: IC50, activity toward kinase Syk. Put shortly:
as §1

Assay [4] concerns the target T3, Jnk2 (Homo sapiens, UniProt P45984).
T3 construct: purchased Roche Protein Expression Group (Indianapolis, IN)
Briefly: AlphaScreen kinase assay, Jnk2. Particulars: read-out: IC50, activity toward kinase Jnk2. Summed up:
as §1

The target in assay [5] is Gsk3β (Homo sapiens, UniProt P49841). Nature of the assay: AlphaScreen kinase assay, Gsk3β. Particulars: read-out: IC50, activity toward kinase Gsk3β. Put shortly: as §1
Assay [6] has as its target MAP4K4 (Homo sapiens, UniProt O95819). Nature of the assay: AlphaScreen kinase assay, MAP4K4. Particulars: read-out: IC50, activity toward kinase MAP4K4.
From the text: AlphaScreen assay was used to screen additional kinases. The assay is similarly dependent on the phosphorylation of a peptide substrate. In this assay, an antibody that recognizes phosphorylated substrate is bound to an acceptor bead. The peptide substrate is attached to biotin, which binds to a donor head that contains streptavidin. Thus phosphorylated substrate is bound by antibody and streptavidin, bringing the donor and acceptor heads into close proximity when kinase is not inhibited. The donor produces singlet oxygen which results in emission from the acceptor when they are in close proximity. Conversely, when kinase is inhibited, the donor and acceptor beads are not associated and the emission from the acceptor is reduced.
AlphaScreen assays were done using compounds dissolved in DMSO to a concentration of 20 mM. The compounds were diluted accordingly to the desired final concentrations in each sample well, using 1:3 serial dilution for a total of 8 concentration points. Plates were prepared such that each kinase reaction is 20 μl in 1× kinase buffer, 5% DMSO and 10 μM ATP. After incubation of the kinase reaction for 1 hour at room temperature, 5 μl of donor beads in stop buffer (50 mM EDTA in 1× kinase buffer) was added, the sample was mixed and incubated for 20 minutes at room temperature before adding 5 μl of acceptor beads in stop buffer. The samples were incubated for 60 minutes at room temperature and the signal per well was read on AlphaQuest reader.

T3 sequence (P45984 whole entry): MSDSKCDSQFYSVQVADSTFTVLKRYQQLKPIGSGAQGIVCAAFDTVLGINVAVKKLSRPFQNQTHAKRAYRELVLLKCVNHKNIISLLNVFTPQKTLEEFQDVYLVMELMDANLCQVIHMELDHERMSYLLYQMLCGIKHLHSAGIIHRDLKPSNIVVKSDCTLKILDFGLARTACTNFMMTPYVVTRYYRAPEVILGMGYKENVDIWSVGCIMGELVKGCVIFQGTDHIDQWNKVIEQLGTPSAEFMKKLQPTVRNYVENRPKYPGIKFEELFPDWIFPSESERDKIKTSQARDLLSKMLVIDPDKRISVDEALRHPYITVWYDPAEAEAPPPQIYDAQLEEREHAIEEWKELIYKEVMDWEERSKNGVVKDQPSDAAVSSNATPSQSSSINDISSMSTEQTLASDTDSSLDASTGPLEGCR
T1 sequence (Q02750 whole entry): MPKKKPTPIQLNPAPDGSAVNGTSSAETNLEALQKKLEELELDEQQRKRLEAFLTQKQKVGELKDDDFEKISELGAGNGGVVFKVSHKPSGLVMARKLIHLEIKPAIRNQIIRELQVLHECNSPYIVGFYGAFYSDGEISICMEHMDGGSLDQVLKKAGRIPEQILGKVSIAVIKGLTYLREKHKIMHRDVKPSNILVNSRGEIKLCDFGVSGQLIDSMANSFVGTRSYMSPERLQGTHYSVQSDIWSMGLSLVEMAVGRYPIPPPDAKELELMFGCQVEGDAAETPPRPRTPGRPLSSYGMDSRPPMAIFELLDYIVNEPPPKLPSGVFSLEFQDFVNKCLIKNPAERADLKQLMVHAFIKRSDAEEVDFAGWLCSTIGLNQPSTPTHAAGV
Sequence of Gsk3β (P49841 whole entry): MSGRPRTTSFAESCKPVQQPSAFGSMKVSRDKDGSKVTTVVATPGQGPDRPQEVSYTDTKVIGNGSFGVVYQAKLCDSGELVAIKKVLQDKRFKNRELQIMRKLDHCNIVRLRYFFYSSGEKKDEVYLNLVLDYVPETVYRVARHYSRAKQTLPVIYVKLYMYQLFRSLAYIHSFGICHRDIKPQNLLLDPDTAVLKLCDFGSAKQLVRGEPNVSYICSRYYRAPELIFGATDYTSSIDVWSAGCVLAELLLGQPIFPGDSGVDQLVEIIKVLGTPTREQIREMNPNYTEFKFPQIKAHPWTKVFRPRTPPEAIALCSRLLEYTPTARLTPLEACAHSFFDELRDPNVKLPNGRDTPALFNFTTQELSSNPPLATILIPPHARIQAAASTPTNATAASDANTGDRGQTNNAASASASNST
Sequence of MAP4K4 (O95819 whole entry): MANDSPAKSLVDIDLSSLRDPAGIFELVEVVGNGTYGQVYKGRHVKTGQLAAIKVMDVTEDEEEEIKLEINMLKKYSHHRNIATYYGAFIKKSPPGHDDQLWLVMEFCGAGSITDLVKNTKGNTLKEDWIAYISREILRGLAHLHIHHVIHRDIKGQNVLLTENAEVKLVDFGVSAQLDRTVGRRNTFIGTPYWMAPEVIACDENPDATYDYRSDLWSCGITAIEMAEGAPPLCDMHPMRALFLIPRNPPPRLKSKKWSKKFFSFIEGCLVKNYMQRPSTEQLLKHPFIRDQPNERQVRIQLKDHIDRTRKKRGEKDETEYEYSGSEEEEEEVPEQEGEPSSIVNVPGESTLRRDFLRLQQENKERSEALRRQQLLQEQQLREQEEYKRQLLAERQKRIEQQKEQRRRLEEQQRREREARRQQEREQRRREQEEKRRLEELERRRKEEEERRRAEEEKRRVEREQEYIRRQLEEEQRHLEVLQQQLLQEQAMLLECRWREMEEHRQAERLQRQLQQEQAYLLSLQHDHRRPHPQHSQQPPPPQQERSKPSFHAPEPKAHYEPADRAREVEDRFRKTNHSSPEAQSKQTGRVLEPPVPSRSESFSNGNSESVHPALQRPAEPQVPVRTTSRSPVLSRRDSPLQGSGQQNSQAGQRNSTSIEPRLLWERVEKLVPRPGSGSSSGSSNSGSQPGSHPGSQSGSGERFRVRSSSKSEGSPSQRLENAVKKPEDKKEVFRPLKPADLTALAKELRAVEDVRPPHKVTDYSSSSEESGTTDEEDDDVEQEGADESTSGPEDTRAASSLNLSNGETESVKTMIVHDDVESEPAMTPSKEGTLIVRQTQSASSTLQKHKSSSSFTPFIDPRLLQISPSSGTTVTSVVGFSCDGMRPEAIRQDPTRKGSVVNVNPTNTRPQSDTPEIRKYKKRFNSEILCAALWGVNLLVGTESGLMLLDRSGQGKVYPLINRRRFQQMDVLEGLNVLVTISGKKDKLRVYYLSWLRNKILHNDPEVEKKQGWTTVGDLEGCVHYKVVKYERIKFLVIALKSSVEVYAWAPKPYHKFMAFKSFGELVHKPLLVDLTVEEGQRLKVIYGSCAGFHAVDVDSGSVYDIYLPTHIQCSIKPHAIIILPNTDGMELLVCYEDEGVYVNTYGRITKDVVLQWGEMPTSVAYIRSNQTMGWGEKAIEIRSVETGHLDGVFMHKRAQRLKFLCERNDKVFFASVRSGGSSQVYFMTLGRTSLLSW

Turning to `Nc1cccc(-c2cnc3[nH]cc(C(=O)c4cc(O)ccc4F)c3c2)c1` [Compound P-0002], the half-inhibitory concentration (IC50) in assay [1], in assay [2] and in assay [3] was at most 10 µM throughout.

Regarding `Cc1c(O)cccc1C(=O)c1c[nH]c2ncc(-c3cccnc3)cc12` [Compound P-0006, (3-Hydroxy-2-methyl-phenyl)-(5-pyridin-3-yl-1H-pyrrolo[2,3b]pyridin-3-yl)-methanone], the IC50 in assay [4], in assay [1] and in assay [2] was at most 10 µM each time.

As for `CS(=O)(=O)c1cccc(-c2cnc3[nH]cc(C(=O)c4cc(O)ccc4F)c3c2)c1` [Compound P-0008, (2-Fluoro-5-hydroxy-phenyl)-[5-(3-methanesulfonyl-phenyl)-1H-pyrrolo[2,3-b]pyridin-3-yl]-methanone], the IC50 in assay [1] and in assay [2] was at most 10 µM throughout.

Consider `O=C(O)/C=C/c1cccc(-c2cnc3[nH]cc(C(=O)c4cc(O)ccc4F)c3c2)c1` [Compound P-0010], for which the IC50 in assay [1] and in assay [3] was at most 10 µM each time.

On to `O=C(O)/C=C/c1cccc(-c2cnc3[nH]cc(C(=O)c4ccccc4F)c3c2)c1` [Compound P-0033], for which the IC50 in assay [4] and in assay [3] was at most 10 µM in each case.

Consider `Oc1cccc(Cc2c[nH]c3ncc(-c4ccsc4)cc23)c1` [Compound P-0056], for which the IC50 in assay [4] and in assay [3] was at most 10 µM each time.

Turning to `O=C(c1cccc(O)c1)c1c[nH]c2ncc(-c3cccs3)cc12` [Compound P-0196], the IC50 in assay [4], in assay [2] and in assay [3] was at most 10 µM each time.

For `O=C(c1cccc(O)c1F)c1c[nH]c2ncc(-c3cccs3)cc12` [Compound P-0521, (2-fluoro-3-hydroxy-phenyl)-(5-thiophen-2-yl-1H-pyrrolo[2,3-b]pyridin-3-yl)-methanone], the IC50 in assay [4], in assay [2] and in assay [3] was at most 10 µM in each case.

With `COc1cccc(C(=O)c2c[nH]c3ncc(-c4cccc(NC(C)=O)c4)cc23)c1F` [Compound P-1336, N-{3-[3-(2-Fluoro-3-methoxy-benzoyl)-1H-pyrrolo[2,3-b]pyridin-5-yl]-phenyl}-acetamide], the IC50 in assay [5], in assay [6] and in assay [3] was at most 10 µM in each case.
